# Data as given in ChEMBL document CHEMBL5727449, “Toll-like receptor 7 (TLR7) agonists having heteroatom-linked aromatic moieties, conjugates thereof, and methods and uses therefor” (2019).
# Target: T1, Toll-like receptor 7 (Homo sapiens, UniProt Q9NYK1)
# T1 sequence (Q9NYK1 whole entry): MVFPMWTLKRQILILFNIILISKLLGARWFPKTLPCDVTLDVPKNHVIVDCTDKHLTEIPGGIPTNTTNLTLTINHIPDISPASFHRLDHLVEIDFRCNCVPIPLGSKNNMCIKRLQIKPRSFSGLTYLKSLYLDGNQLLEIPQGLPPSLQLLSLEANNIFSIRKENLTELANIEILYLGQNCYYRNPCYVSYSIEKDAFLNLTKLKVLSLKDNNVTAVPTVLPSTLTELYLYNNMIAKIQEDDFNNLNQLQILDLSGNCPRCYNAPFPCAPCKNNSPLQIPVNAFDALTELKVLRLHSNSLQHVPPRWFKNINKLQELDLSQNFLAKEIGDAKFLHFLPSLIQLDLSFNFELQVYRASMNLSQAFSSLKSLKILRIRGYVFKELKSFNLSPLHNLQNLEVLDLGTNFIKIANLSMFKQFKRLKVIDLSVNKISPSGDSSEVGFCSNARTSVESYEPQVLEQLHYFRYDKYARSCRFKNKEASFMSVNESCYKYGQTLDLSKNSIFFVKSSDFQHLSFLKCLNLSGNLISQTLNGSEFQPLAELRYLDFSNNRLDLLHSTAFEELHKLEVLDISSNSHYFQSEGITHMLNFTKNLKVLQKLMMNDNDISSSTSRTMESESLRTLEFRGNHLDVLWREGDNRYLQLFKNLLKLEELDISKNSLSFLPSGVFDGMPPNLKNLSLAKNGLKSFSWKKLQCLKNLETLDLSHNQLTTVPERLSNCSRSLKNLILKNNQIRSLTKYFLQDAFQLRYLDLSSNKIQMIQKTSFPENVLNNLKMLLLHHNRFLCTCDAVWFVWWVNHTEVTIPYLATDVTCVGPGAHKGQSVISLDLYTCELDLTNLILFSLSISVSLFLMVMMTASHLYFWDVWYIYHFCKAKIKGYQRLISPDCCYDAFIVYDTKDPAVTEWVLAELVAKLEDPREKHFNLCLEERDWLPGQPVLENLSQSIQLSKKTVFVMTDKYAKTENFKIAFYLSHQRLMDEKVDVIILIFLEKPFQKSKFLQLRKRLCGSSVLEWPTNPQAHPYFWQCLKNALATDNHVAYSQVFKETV
# Experiment: HEK-Blue™ TLR7 cells were added to each well of a 384-well tissue-culture plate (15,000 cells per well) and incubated 16-18 h at 37° C., 5% CO2. Compounds (100 nl) were dispensed into wells containing the HEK-Blue™ TLR cells and the treated cells were incubated at 37° C., 5% CO2. After 18 h treatment ten microliters of freshly-prepared Quanti-Blue™ reagent (Invivogen) was added to each well, incubated for 30 min (37° C., 5% CO2) and SEAP levels measured using an Envision plate reader (OD=620 nm).
row,Compound,EC50 [nM]
1,CCCCOc1nc(N)c2nc(O)n(Cc3cccc(Oc4cccc(CNC5CCC5)c4)c3)c2n1,435
2,CCCCOc1nc(N)c2nc(O)n(Cc3ccc(Oc4ccc(CN5CCC5)cc4)c(F)c3)c2n1,1.12
3,CCCCOc1nc(N)c2nc(O)n(Cc3ccc(Oc4ccc(CNCC(C)C)nc4)nc3)c2n1,2.22
4,CCCCOc1nc(N)c2nc(O)n(Cc3ccc(Oc4cccc(CNCC(C)C)n4)cc3)c2n1,2.4
5,CCCCOc1nc(N)c2nc(O)n(Cc3ccc(Oc4ccc(CNCC(C)C)cc4)c(F)c3)c2n1,0.45
6,CCCCOc1nc(N)c2nc(O)n(Cc3ccc(Oc4ccc(CO)cc4)nc3)c2n1,12
7,CCCCOc1nc(N)c2nc(O)n(Cc3ccc(Oc4ccc(CNC5CCOCC5)nc4)nc3)c2n1,1.12
8,CCCCOc1nc(N)c2nc(O)n(Cc3ccc(Oc4ccc(CNC)cc4)nc3)c2n1,1.2
9,CCCCOc1nc(N)c2nc(O)n(Cc3ccc(Oc4ccc(CNC5CCOCC5)cc4)c(F)c3)c2n1,1.2
10,CCCCOc1nc(N)c2nc(O)n(Cc3ccc(Oc4ccc(CNCCC#N)cc4)nc3)c2n1,0.35
11,CCCCOc1nc(N)c2nc(O)n(Cc3ccc(Oc4ccc(CNCCOC)cc4)c(F)c3)c2n1,1.14
12,CCCCOc1nc(N)c2nc(O)n(Cc3ccc(Oc4cccc(CNCCC#N)n4)cc3)c2n1,3.57
13,CCCCOc1nc(N)c2nc(O)n(Cc3ccc(Oc4ccc(CNCCO)nc4)nc3)c2n1,1.6
14,CCCCOc1nc(N)c2nc(O)n(Cc3ccc(Oc4ccc(CNC5CCC5)cc4)nc3)c2n1,0.91
15,CCCCOc1nc(N)c2nc(O)n(Cc3cccc(Oc4cccc(CNC)c4)c3)c2n1,455
16,CCCCOc1nc(N)c2nc(O)n(Cc3cccc(Oc4cccc(CNCCC#N)c4)c3)c2n1,279
17,CCCCOc1nc(N)c2nc(O)n(Cc3ccc(Oc4ccc(CNCc5ccccc5)cc4)cc3)c2n1,13
18,CCCCOc1nc(N)c2nc(O)n(Cc3ccc(Nc4ccc(CNCC(F)F)cc4)nc3)c2n1,7.46
19,CCCCOc1nc(N)c2nc(O)n(Cc3ccc(Oc4ccc(CN5CCOCC5)nc4)nc3)c2n1,0.89
20,CCCCOc1nc(N)c2nc(O)n(Cc3ccc(Nc4ccc(CNCCO)cc4)nc3)c2n1,5.8
21,CCCCOc1nc(N)c2nc(O)n(Cc3ccc(Oc4ccc(CNC5COC5)cc4)nc3)c2n1,0.7

row,Compound,EC50 [nM]
1,CCCCOc1nc(N)c2nc(O)n(Cc3ccc(Nc4ccc(CNCCS(C)(=O)=O)cc4)nc3)c2n1,0.374
2,CCCCOc1nc(N)c2nc(O)n(Cc3cccc(Oc4cccc(CNC5COC5)c4)c3)c2n1,403
3,CCCCOc1nc(N)c2nc(O)n(Cc3cccc(Oc4cccc(CNC5CC(F)(F)C5)c4)c3)c2n1,525
4,CCCCOc1nc(N)c2nc(O)n(Cc3ccc(Oc4ccc(CNC5CC5)cc4)cc3)c2n1,2.1
5,CCCCOc1nc(N)c2nc(O)n(Cc3ccc(Oc4ccc(CNCCS(C)(=O)=O)cc4)nc3)c2n1,1.8
6,CCCCOc1nc(N)c2nc(O)n(Cc3ccc(Oc4ccc(CNCCO)cc4)cc3)c2n1,1.4
7,CCCCOc1nc(N)c2nc(O)n(Cc3ccc(Nc4ccc(CNCC(C)(C)O)cc4)nc3)c2n1,3.2
8,CCCCOc1nc(N)c2nc(O)n(Cc3ccc(Nc4ccc(CNCC(C)C)cc4)nc3)c2n1,7.5
9,CCCCOc1nc(N)c2nc(O)n(Cc3ccc(Nc4ccc(CNCCOC)cc4)nc3)c2n1,1.19
10,CCCCOc1nc(N)c2nc(O)n(Cc3ccc(Nc4ccc(CNC5CCC5)cc4)nc3)c2n1,1.23
11,CCCCOc1nc(N)c2nc(O)n(Cc3ccc(Nc4ccc(CNC5CCOCC5)cc4)nc3)c2n1,4.3
12,CCCCOc1nc(N)c2nc(O)n(Cc3ccc(Oc4ccc(CNCC5CC5)cc4)nc3)c2n1,1.1
13,CCCCOc1nc(N)c2nc(O)n(Cc3ccc(Oc4ccc(CNC5C6CC5C6)cc4)nc3)c2n1 (stereo not drawn),1.3
14,CCCCOc1nc(N)c2nc(O)n(Cc3ccc(Oc4ccc(CNCC(C)C)cc4)nc3)c2n1,0.54
15,CCCCOc1nc(N)c2nc(O)n(Cc3ccc(Oc4ccc(CNCCOC)nc4)nc3)c2n1,0.96
16,CCCCOc1nc(N)c2nc(O)n(Cc3ccc(Oc4ccc(CNCCO)cc4)c(F)c3)c2n1,0.46
17,CCCCOc1nc(N)c2nc(O)n(Cc3ccc(Oc4cccc(CNC5COC5)n4)cc3)c2n1,4.27
18,CCCCOc1nc(N)c2nc(O)n(Cc3ccc(Oc4ccc(CNC5CCC5)nc4)nc3)c2n1,2.07
19,CCCCOc1nc(N)c2nc(O)n(Cc3ccc(Oc4ccc(CNC5CCC5)cc4)cc3)c2n1,2.6
20,CCCCOc1nc(N)c2nc(O)n(Cc3ccc(Oc4ccc(CNCC(F)F)cc4)c(F)c3)c2n1,1.8

# More lines, in order of falling EC50, values ahead:
row,EC50 [nM],Compound
1,942,CCCCOc1nc(N)c2nc(O)n(Cc3cccc(Oc4cccc(CN5CCNCC5)c4)c3)c2n1
2,375,CCCCOc1nc(N)c2nc(O)n(Cc3cccc(Oc4cccc(CNCCO)c4)c3)c2n1
3,154,CCCCOc1nc(N)c2nc(O)n(Cc3cccc(Oc4cccc(CNCCS(C)(=O)=O)c4)c3)c2n1
4,5.3,CCCCOc1nc(N)c2nc(O)n(Cc3ccc(Oc4ccc(CNCc5ccccc5)cc4)nc3)c2n1
5,4.2,CCCCOc1nc(N)c2nc(O)n(Cc3ccc(Nc4ccc(CN5CCN(C)CC5)cc4)nc3)c2n1
6,3.9,CCCCOc1nc(N)c2nc(O)n(Cc3ccc(Oc4ccc(CN5CCOCC5)cc4)c(F)c3)c2n1
7,2.9,CCCCOc1nc(N)c2nc(O)n(Cc3ccc(Oc4ccc(CNCC(F)F)cc4)nc3)c2n1
8,2.9,CCCCOc1nc(N)c2nc(O)n(Cc3ccc(Oc4ccc(CN5CCN(C)CC5)cc4)c(F)c3)c2n1
9,2.51,CCCCOc1nc(N)c2nc(O)n(Cc3ccc(Oc4cccc(CNC5CCC5)n4)cc3)c2n1
10,1.8,CCCCOc1nc(N)c2nc(O)n(Cc3ccc(Oc4ccc(CNCC(F)F)nc4)nc3)c2n1
11,1.77,CCCCOc1nc(N)c2nc(O)n(Cc3ccc(Oc4ccc(CN5CCN(C)CC5)nc4)nc3)c2n1
12,1.7,CCCCOc1nc(N)c2nc(O)n(Cc3ccc(Oc4ccc(CNC5COC5)cc4)cc3)c2n1
13,1.6,CCCCOc1nc(N)c2nc(O)n(Cc3ccc(Oc4ccc(CNC5CCCC5)cc4)nc3)c2n1
14,1.56,CCCCOc1nc(N)c2nc(O)n(Cc3ccc(Nc4ccc(CN5CCCC5)cc4)nc3)c2n1
15,1.38,CCCCOc1nc(N)c2nc(O)n(Cc3ccc(Oc4ccc(CNC5CCC5)cc4)c(F)c3)c2n1
16,1.3,CCCCOc1nc(N)c2nc(O)n(Cc3ccc(Oc4ccc(CNC5CC(F)(F)C5)cc4)nc3)c2n1
17,1.1,CCCCOc1nc(N)c2nc(O)n(Cc3ccc(Oc4ccc(CNC(C)C)cc4)nc3)c2n1
